Tests used:
[1] = biological target: T1, CYP2C8 (Homo sapiens, UniProt P10632); experiment: CYP2C8 amodiaquine N-deethylase inhibition and mechanism-based inactivation in human liver microsomes; format: in vitro ADME; settings: for IC50: Amodiaquine N-deethylase
T1 construct: tissue Corning Life Sciences; host or cells: pooled human liver microsomes (150 donors)
T1 sequence (P10632 1-490): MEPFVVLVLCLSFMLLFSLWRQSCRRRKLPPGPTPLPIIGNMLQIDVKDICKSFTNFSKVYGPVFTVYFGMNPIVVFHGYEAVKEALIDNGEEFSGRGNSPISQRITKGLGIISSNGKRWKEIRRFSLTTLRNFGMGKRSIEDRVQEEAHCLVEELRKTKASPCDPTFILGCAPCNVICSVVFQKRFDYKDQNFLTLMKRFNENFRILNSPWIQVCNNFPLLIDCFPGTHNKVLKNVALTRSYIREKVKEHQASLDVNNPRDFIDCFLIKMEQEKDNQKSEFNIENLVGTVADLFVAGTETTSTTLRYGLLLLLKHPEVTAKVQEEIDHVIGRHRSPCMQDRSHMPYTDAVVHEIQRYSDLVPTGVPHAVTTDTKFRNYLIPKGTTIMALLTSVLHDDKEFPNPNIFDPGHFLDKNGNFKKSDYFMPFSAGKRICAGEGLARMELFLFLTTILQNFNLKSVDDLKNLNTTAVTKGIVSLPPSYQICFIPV
Experimental: After a 3-min pre-incubation at 37 °C, the reactions were initiated by addition of NADPH and incubation proceeded for 15 min at 37 °C in a shaking water bath. […] The incubation mixtures were centrifuged (13,000× g, 4 min, 4 °C). All assays were performed in triplicate and mean values were used in calculations.
Each reaction was initiated by adding the seven-CYP probe substrate cocktail.
The second reaction was terminated after incubation for 10 min by adding 100-µL amounts of ice-cold methanol containing d9-1′-hydroxybufuralol. The incubation mixtures were centrifuged (13,000× g, 4 min, 4 °C), and then 50 µL of each supernatant was diluted with 50 µL of water. Aliquots (5 µL) of the diluted supernatants were analyzed by LC-MS/MS.
The metabolites formed from CYP substrates were quantified simultaneously by a LC-MS/MS method described previously. The ESI source settings in positive-ion mode for metabolite ionization were: capillary voltage, 4200 V; vaporizer temperature, 350 °C; capillary temperature, 330 °C; sheath gas pressure, 35 psi; and auxiliary gas pressure, 15 psi. Quantification was performed by selected reaction monitoring (SRM) of the [M + H]^+ ion and the related product ion for each metabolite: acetaminophen, 152.1 > 110.3; N-desethylamodiaquine, 328.1 > 283.0; 7-hydroxycoumarin, 163.0 > 107.2; 4-hydroxybupropion, 256.1 > 238.0; 4′-hydroxydiclofenac, 312.0 > 231.1; 4′-hydroxy-mephenytoin; 235.1 > 150.1; 1′-hydroxybufuralol, 278.1 > 186.1; 1′-hydroxymidazolam, 341.9 > 324.0; ^13C2,^15N-acetaminophen 155.1 > 111.2; and d9-1′-hydroxybufuralol, 287.2 > 187.0. Analytical data were processed using Xcalibur software (version 2.1, Thermo Scientific).
(§1) The apparent kinetic parameters for inhibitory potential (Ki and kinact values) and inhibition mode were estimated from the fitted curves using the Enzyme Kinetics program (ver. 1.1; Systat Software Inc., San Jose, CA, USA).

[2] = biological target: T2, UGT1A3 (Homo sapiens, UniProt P35503); experiment: UGT1A3 chenodeoxycholic acid 24-acyl-glucuronidation inhibition in human liver microsomes; format: in vitro ADME
T2 construct: tissue Corning Life Sciences; host or cells: pooled human liver microsomes (150 donors)
T2 sequence (P35503 29-534): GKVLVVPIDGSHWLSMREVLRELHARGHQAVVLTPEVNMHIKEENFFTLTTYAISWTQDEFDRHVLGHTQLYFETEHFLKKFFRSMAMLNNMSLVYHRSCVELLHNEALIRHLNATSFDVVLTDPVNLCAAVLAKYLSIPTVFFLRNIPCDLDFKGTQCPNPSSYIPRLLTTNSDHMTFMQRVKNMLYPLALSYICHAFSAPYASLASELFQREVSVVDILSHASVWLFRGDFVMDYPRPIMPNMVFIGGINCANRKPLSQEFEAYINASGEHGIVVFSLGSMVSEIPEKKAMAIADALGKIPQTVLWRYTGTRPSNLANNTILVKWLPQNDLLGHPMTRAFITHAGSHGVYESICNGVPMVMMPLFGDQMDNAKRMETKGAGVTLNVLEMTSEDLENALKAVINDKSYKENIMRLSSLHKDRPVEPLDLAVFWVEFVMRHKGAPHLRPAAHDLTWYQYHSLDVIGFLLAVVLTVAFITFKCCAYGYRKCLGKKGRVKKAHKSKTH
Experimental: After 3 min of pre-incubation at 37 °C, the reactions were initiated by addition of UDPGA; incubation continued for 60 min at 37 °C in a shaking water bath. The reaction was stopped by placing the tubes on ice and adding 50 µL ice-cold acetonitrile containing internal standards (propofol glucuronide for chenodeoxycholic acid 24-acyl-β-glucuronide and mycophenolic acid glucuronide, and meloxicam for SN-38 glucuronide, trifluoperazine glucuronide, N-acetylserotonin β-D-glucuronide, and naloxone 3-β-D-glucuronide). The incubation mixtures were centrifuged (13,000× g, 4 min, 4 °C). All assays were performed in triplicate and average values were used in calculations.
The reactions were initiated by addition of UDPGA at 37 °C and stopped after 60 min by placing the incubation tubes on ice and adding 100 μL of ice-cold methanol containing propofol glucuronide (internal standard for UGT1A3) or meloxicam (internal standard for UGT2B7). The incubation mixtures were centrifuged (13,000× g, 4 min, 4 °C), and then, 50 μL of the supernatant was diluted with 50 μL of water. Aliquots (5 μL) of the diluted supernatants were analyzed by LC-MS/MS.
The metabolites formed from the six UGT cocktail substrates were measured simultaneously using the LC-MS/MS method. The ESI source settings in both positive- and negative-ion modes for metabolite ionization were: capillary voltage, 4200 V; vaporizer temperature, 350 °C; capillary temperature, 330 °C; sheath gas pressure, 35 psi; and auxiliary gas pressure, 15 psi. […] Data were processed using Xcalibur software.
as §1

**Q.** What does the source list for `O=C(c1cccc2ccccc12)c1cn(CCCCCF)c2ccccc12` [AM-2201, 1-(5-fluoropentyl-1H-indol-3-yl)-(naphthalene-1-yl)methanone]?
**A.** Ki [1]: 2.1 µM; Inhibition Mode ([1]; CYP2C8 amodiaquine N-deethylation): mechanism-based inhibitor; IC50 ([1]; IC50 (μM) No Preincubation, CYP2C8, human liver microsomes, 2.5 μM amodiaquine): 53.8 µM; IC50 ([1]; IC50 (μM) With Preincubation, CYP2C8, 30 min preincubation with NADPH): 6.9 µM; Ki [2]: 4.3 µM; IC50 ([2]; IC50, UGT1A3-catalyzed chenodeoxycholic acid 24-acyl-glucuronidation, abstract): 4.3 µM; IC50 ([2]; IC50, UGT1A3 chenodeoxycholic acid 24-acyl-glucuronidation, 2 μM chenodeoxycholic acid, human liver microsomes): 6.4 µM; Inhibition Mode ([2]; UGT1A3 chenodeoxycholic acid 24-acyl-glucuronidation): competitively inhibited

— publication PMC6155437 (Molecules : A Journal of Synthetic Chemistry and Natural …, 2017)
